As a reminder, the IC50 is the concentration at which inhibition is half-maximal. The term inhibition denotes the drop in the measured response relative to a control, in per cent.

Here are results for 7 compounds from patent publication US6090610A, “Macrolide compound 0406” (Higeta Shoyu Co., Ltd., priority 1996, dated 2000).

Data set [1] concerns Nocardia brasiliensis IFM 0406. Kind of data set: Sensitivity of Nocardia brasiliensis IFM 0406 against antibiotics. The data set is classed as cell-based. The procedure:
The strain was cultured in a culture medium (brain heart infusion containing 2% glucose) at 30° C. with shaking at 250 rpm for 72 hours, and the cells grown in the medium were collected by centrifuge at 3,000 rpm for 10 minutes, which were then washed twice in distilled water. Further, the cells were washed in ethanol and subsequently dried in vacuum to give the dry cells. According to Bergey's Manual of Determinative Bacteriology, the 9-th edition, Williams & Willkins, Baltimore, 1993, the amino acid composition, sugar composition and lipid composition of the dry cells were determined. Meso-diamino pimelic acid was detected by the amino acid analysis, while arabinose and galactose were detected by the sugar analysis. Also, the presence of mycolic acid was determined by the lipid analysis, and the type of the acid was Nocardia type. MK-8(H4) cycle was confirmed as a principal component of the isoprenoid quinone which is a part of the bacterial lipid, while as the trace components, MK-8(H4), MK-8(H), and MK-9(H2) were confirmed. Based onthe decomposition of adenine, casein, hypoxanthine and tyrosine and additionally on the formation patterns of acids from sugar and the antimicrobial sensitivity patterns, shown in Table 4 (Mikami & Yazawa, Susceptibility pattern of pathogenic Nocardia to some selected antimicrobial agents and their usefulness in the identification work in a clinical laboratory: BuLL. JFCC, 5: 89, 1989), the bacterial strain was identified as the species N. brasiliensis. The results of the analysis of the G+C content and DNA homology support strongly that the strain is N. brasiliensis.

The test system of data set [2] is murine T cells (C57BL/6 splenocytes as responder cells). Briefly: Murine mixed lymphocyte reaction (MLR), T-cell blast formation by tritium-labeled thymidine uptake. The data set is classed as cell-based. The following applies: Mus musculus, 96 h culture + 7 h labeling, read-out: IC50 (MLR, inhibition of tritium-labeled thymidine uptake).
A short description of data set [3]: Solubility. The data set is classed as physicochemical.
Data set [4] is described as follows: Cytotoxity test, 3H-thymidine uptake, HeLa. It counts as cell-based. The settings on record: human, hela cells, read-out: IC50 (cytotoxity). Here is the method:
(§1) After culturing for 96 hours, ^3 H-thymidine (0.5 μCi/well) was added into each well. The microtiter plate was incubated for 4 hours, followed by trypsin treatment of the cell lines excluding YAC-1, and the resulting cells were recovered on glass fiber filters to measure the radioactivity incorporated into the cells by means of a liquid scintillation counter. From the radioactivity (c) of a well with no addition of any sample and the radioactivity (t) of each of the wells with addition of the individual samples, the growth inhibition rate was determined by the formula […] (%). IC50 was calculated from the results.

The subject of data set [5] is cytotoxic T-cell (CTL) generation. Briefly: In vitro cytotoxic T-cell activity (inhibitory effect on CTL generation induced by murine mixed lymphocyte reaction), 51Cr release from EL-4 cells. The settings on record: for Cytotoxic T-cell activity: lytic units per 10^7 effector cells. The data set is classed as cell-based. The procedure: (2) In vitro cytotoxic T-cell activity (CTL: cytotoxic T-cell) (Inhibitory effect on CTL generation, induced by murine mixed lymphocyte reaction)
A suspension solution (5.5×10^6 cells/ml; 0.9 ml) of BALB/C (H-2^d) splenocytes prepared in the same manner as in Example 2, a suspension solution (5.5×10^6 cells/ml; 0.9 ml) of C57BL/6 (H-2^b) splenocytes preliminarily treated with mitomycin C, and a sample solution (0.2 ml) were added into a 24-well multi-dish, for culturing at 37° C. under conditions of 5% CO2 -95% air for 5 days. After completion of cultivation, the cells were recovered by centrifuge, which were then suspended in the RPMI 1640 medium containing 10% bovine serum, for use as the effector cells.
EL-4 cells (H-2^b) were used as the target cells. The incubation of the EL-4 cells (10^6) with 0.1 μCi Na2^51 CrO4 at 37° C. for 3 hours promoted the ^51 Cr uptake in the cells, and subsequently, the cells were washed and the concentration was adjusted to 2×10^5 cells/ml for use as the target cells.
The determination of the cytotoxic T-cell generation was carried out as follows. The effector cell suspension (100 μl) and the target cell suspension (100 μl) were added into a 96-well round-bottom microtiter plate for cultivation at 37° C. for 4 hours, to measure ^51 Cr release in the supernatant. Then, the cytotoxic T-cell activity was calculated by the formulated below.
Cytotoxic T-cell activity =
[radioactivity of (effector cell + target cell)] -
(radioactivity of target cell alone)/
(radioactivity of target cell treated with 0.1N HCl) -
(radioactivity of target cell alone) × 100
The activity of the cytotoxic T cell was represented in lytic unit (LU). The activity in LU was represented per 10^7 effector cells, when 1 LU was designated as the number of effector cells required for 20% lysis of the 2×10^4 target cells.

Data set [6] is described as follows: Cytotoxity test, 3H-thymidine uptake, HEK-297. The data set is classed as cell-based. The following applies: human, hek-297 cells; HEK-297, 96 h; read-out: IC50 (cytotoxity). The procedure: as §1
Data set [7] has as its system cultured cell lines (HEK-297, Cos-1, YAC-1, HeLa). Kind of data set: Cytotoxity test, overall comparison on cultured cell lines. The data set is classed as cell-based. The following applies: in words. The procedure: (1) The cytotoxity test of compound 0406-A shown in Example 1 was carried out against cultured cell lines.
Cell suspensions (5.6×10^4 cells/ml) were prepared by using the Minimum Essential Medium (MEM)-Dulbecco's medium for HEK-297, Cos-1, and Hela cells, and the RPMI 1640 medium for YAC-1 cells (all media containing 10% bovine serum). Samples (0406A, Cyclosporin and Ascomycin) were prepared by serial two-fold dilution starting from 1 mg/ml, by using the individual media. A cell suspension (180 μl) and a sample solution (20 μl) were added into each well of a 96-well microtiter plate, for culturing at 37° C. in wet 5% CO2 -95% air environment. After culturing for 96 hours, ^3 H-thymidine (0.5 μCi/well) was added into each well. The microtiter plate was incubated for 4 hours, followed by trypsin treatment of the cell lines excluding YAC-1, and the resulting cells were recovered on glass fiber filters to measure the radioactivity incorporated into the cells by means of a liquid scintillation counter. From the radioactivity (c) of a well with no addition of any sample and the radioactivity (t) of each of the wells with addition of the individual samples, the growth inhibition rate was determined by the formula […] (%). IC50 was calculated from the results.

Data set [8] is described as follows: Cytotoxity test, 3H-thymidine uptake, Cos-1. It counts as cell-based. The following applies: monkey, cos-1 cells; Cos-1, 96 h; read-out: IC50 (cytotoxity). Here is the method:
as §1

Data set [9] is described as follows: Cytotoxity test, 3H-thymidine uptake, YAC-1. The data set is classed as cell-based. The settings on record: mouse, yac-1 cells; YAC-1, 96 h; read-out: IC50 (cytotoxity). The procedure: as §1
The conditions of data set [10]: in words; cited from earlier work.

Structures are written as SMILES. In brackets after ≈: the same amount, converted by molar mass.

`O=c1[nH]cc(F)c(=O)[nH]1` [5-FU]: the Sensitivity against antibiotics entry in data set [1] was “negative”.

`CCCCC(=O)OC1CC(OC(C)C(C)C(O)C(C)C(O)C(C)C2OC(=O)C=CCC(O)CC(O)CC(O)CCC(C)C(O)CC3(O)OC(CC(O)CC(OC(=O)CC(=O)O)CCCC(O)C4OC4C2C)CC(O)C3O)OC(C)C1O` (stereo not drawn) [0406-A]: the IC50 in data set [2] was determined as 0.16 µg/mL. Further, the Solubility entry is “Insoluble in chloroform, ethyl acetate and ether” in [3] (chloroform, ethyl acetate, ether); “Soluble in water, methanol, ethanol and DMSO” in data set [3] (water, methanol, ethanol, DMSO). For the same compound, the CC50 at 96 h in [4], in [6], in data set [8] and in data set [9] was more than 100 µg/mL in each case. Also, the “Cytotoxic T-cell activity” value is 22.0 u in [5] (126 ng/ml), 12.5 u in data set [5] (625 ng/ml), 0.1 u in data set [5] (2,500 ng/ml) and less than 0.1 u in data set [5] (10,000 ng/ml). For the same compound, the inhibition at 0.126 µg/mL in [5] (Mus musculus, T-cell, 120 h, 126 ng/ml, read-out: Inhibition rate (cytotoxic T-cell activity)) turned out to be 0%. In addition, the inhibition at 0.625 µg/mL in [5] (Mus musculus, T-cell, 120 h, 625 ng/ml, read-out: Inhibition rate (cytotoxic T-cell activity)) came out at 39.5%. Further, the inhibition at 2.5 µg/mL in [5] (Mus musculus, T-cell, 120 h, 2,500 ng/ml, read-out: Inhibition rate (cytotoxic T-cell activity)) came out at 99.5%. In [5] (Mus musculus, T-cell, 120 h, 10,000 ng/ml, read-out: Inhibition rate (cytotoxic T-cell activity)), the inhibition at 10 µg/mL was more than 99.5%. Moreover, in [5] (in words, dose dependence), the “induction of CTL” value is “decreased the induction of CTL in a dose-dependent manner”. Moreover, the “cytotoxity level versus commercially available immuno suppressive agents” value in data set [7] was “lower than that of the commercially available immuno suppressive agents”.

Consider `CC[C@@H]1/C=C(\C)C[C@H](C)C[C@H](OC)[C@H]2O[C@@](O)(C(=O)C(=O)N3CCCC[C@H]3C(=O)O[C@H](/C(C)=C/[C@@H]3CC[C@@H](O)[C@H](OC)C3)[C@H](C)[C@@H](O)CC1=O)[C@H](C)C[C@@H]2OC` [Ascomycin, reference compound], for which the IC50 in [2] amounted to 0.008 µg/mL. Further, the CC50 at 96 h worked out at 13 µg/mL (≈ 16.4 µM) in data set [4], 25 µg/mL (≈ 31.6 µM) in data set [6], 58 µg/mL (≈ 73.2 µM) in [8] and 50 µg/mL (≈ 63.1 µM) in [9].

Consider `C[C@@H](O)[C@H]1C(=O)N2C(C(=O)O)=C(SCCN=CN)C[C@H]12` [imipenem], for which the Sensitivity against antibiotics entry in data set [1] is “negative”.

On to `NC[C@H]1O[C@H](O[C@H]2[C@H](O)[C@@H](O[C@H]3O[C@H](CO)[C@@H](O)[C@H](N)[C@H]3O)[C@H](N)C[C@@H]2N)[C@H](O)[C@@H](O)[C@@H]1O` [kanamycin], for which the Sensitivity against antibiotics result in data set [1] is on record as “negative”.

For `C=CC[C@@H]1/C=C(\C)C[C@H](C)C[C@H](OC)[C@H]2O[C@@](O)(C(=O)C(=O)N3CCCC[C@H]3C(=O)O[C@H](/C(C)=C/[C@@H]3CC[C@@H](O)[C@H](OC)C3)[C@H](C)[C@@H](O)CC1=O)[C@H](C)C[C@@H]2OC` [tacrorims], the side effects entry in [10] was “deleterious in the pancreas and the kidney”.

As to `NC[C@H]1O[C@H](O[C@H]2[C@H](O)[C@@H](O[C@H]3O[C@H](CO)[C@@H](O)[C@H](N)[C@H]3O)[C@H](N)C[C@@H]2N)[C@H](N)C[C@@H]1O` [tobramycin], the Sensitivity against antibiotics result in data set [1] is reported as “positive”.
